In series [1] the test system is 4T1 murine breast cancer cells. Kind of series: Cell viability / cytotoxicity detection (ONE-Glo+Tox). It is filed as cell-based. As to the method: (§1) 4T1 murine breast cancer cells were seeded into white 96-well plate with the density of 1×10^4 cells per well. After 24 h, cells were replaced by 180 μL fresh RPMI 1640 medium (10% FBS), and 20 μL mRNA-Luc or Luc-pDNA encapsulated CLLM Nanoparticle formulations were added with fixed 100 ng mRNA or 200 ng pDNA per well. Free mRNA-Luc or Luc-pDNA were used as the control. Cells were further incubated for 24 h and ONE-Glo+Tox kits were used for mRNA expression and cytotoxicity detection based on the standard protocol.

In series [2] the test system is 4T1 murine breast cancer cells. Kind of series: In vitro luciferase expression (ONE-Glo+Tox). It is filed as cell-based. Particulars: 100 ng mRNA or 200 ng pDNA per well, 24 h, FIGS. 11 and 12. On the procedure: as §1

Regarding `CCCCCCCCCCCCCCOC(=O)CCN(CCSSCCN(C)C)CCC(=O)OCCCCCCCCCCCCCC` [CLLM-2], the “tolerability of drug delivery (mRNA nanoparticle formulations)” value in series [1] (100 ng mRNA in 200 uL medium per well, FIG. 11) was “tolerated”. Also, the “tolerability of drug delivery (pDNA nanoparticle formulations)” value in series [1] (200 ng pDNA in 200 uL medium per well, FIG. 12) is “tolerated”. The “luciferase expression / delivery of mRNA and pDNA into cells” value in series [2] is “can deliver mRNA and pDNA into cells”.
